Molecular target: sialidase-1 (Homo sapiens, UniProt Q99519)
Assay: microscale thermophoresis
Type: binding

| Structure (SMILES) | Kd [µM] |
| --- | --- |
| COc1ccc(C(=O)c2ccc(C)cc2)c(O)c1 [mexenone] | 8.88 |
| COc1cnc(NS(=O)(=O)c2ccc(N)cc2)nc1 [sulfameter] | 2.15 |

Source: article PMC7860073 (ACS Omega, 2021)
